Test: xn = mol fraction of the nth substance listed
Details: 101.3 kPa, Liquid, Vibrating tube method

ClCCCl [1,2-dichloroethane] + CC(C)O
mass density [kg/m3]
Details | 288.15 K | 293.15 K | 298.15 K | 303.15 K | 308.15 K | 313.15 K
x2 = 0.05 | 1235.82 | 1228.61 | 1221.38 | 1214.13 | 1206.71 | 1199.46
x2 = 0.1004 | 1211.74 | 1204.56 | 1197.38 | 1190.17 | 1182.93 | 1175.66
x2 = 0.1497 | 1188.26 | 1181.19 | 1174.09 | 1166.95 | 1159.78 | 1152.57
x2 = 0.2 | 1164.61 | 1157.64 | 1150.63 | 1143.59 | 1136.5 | 1129.37
x2 = 0.25 | 1141.22 | 1134.37 | 1127.47 | 1120.53 | 1113.54 | 1106.5
x2 = 0.3002 | 1117.88 | 1111.14 | 1104.37 | 1097.54 | 1090.67 | 1083.74
x2 = 0.3502 | 1094.71 | 1088.11 | 1081.46 | 1074.76 | 1068 | 1061.19
x2 = 0.4001 | 1071.46 | 1065.13 | 1058.72 | 1052.15 | 1045.52 | 1038.83
x2 = 0.4503 | 1048.29 | 1042.07 | 1035.7 | 1029.28 | 1022.79 | 1016.23
x2 = 0.4996 | 1025.41 | 1019.32 | 1013.1 | 1006.83 | 1000.49 | 994.079
x2 = 0.5502 | 1002 | 996.011 | 989.957 | 983.831 | 977.648 | 971.39
x2 = 0.6 | 978.769 | 972.943 | 967.056 | 961.099 | 955.079 | 948.987
x2 = 0.6498 | 955.713 | 950.066 | 944.351 | 938.562 | 932.714 | 926.783
x2 = 0.7 | 932.242 | 926.773 | 921.244 | 915.641 | 909.966 | 904.209
x2 = 0.75 | 908.934 | 903.601 | 898.262 | 892.85 | 887.36 | 881.789
x2 = 0.7996 | 885.608 | 880.568 | 875.378 | 870.212 | 864.918 | 859.549
x2 = 0.8495 | 861.973 | 857.114 | 852.182 | 847.228 | 842.144 | 836.984
x2 = 0.8998 | 837.957 | 833.329 | 828.632 | 823.858 | 819.006 | 814.085
x2 = 0.9497 | 813.892 | 809.502 | 805.032 | 800.505 | 795.891 | 791.195

ClCCCl [1,2-dichloroethane] + CCC(C)O
mass density [kg/m3]
Details | 288.15 K | 293.15 K | 298.15 K | 303.15 K | 308.15 K | 313.15 K
x2 = 0.0503 | 1231.77 | 1224.62 | 1217.45 | 1210.25 | 1203.02 | 1195.77
x2 = 0.0999 | 1204.93 | 1197.88 | 1190.8 | 1183.69 | 1176.55 | 1169.4
x2 = 0.1498 | 1179.01 | 1172.06 | 1165.09 | 1158.09 | 1151.05 | 1143.99
x2 = 0.1999 | 1153.69 | 1146.88 | 1140.03 | 1133.14 | 1126.22 | 1119.27
x2 = 0.2505 | 1128.43 | 1121.76 | 1115.05 | 1108.3 | 1101.51 | 1094.68
x2 = 0.2963 | 1106.34 | 1099.8 | 1093.22 | 1086.6 | 1079.94 | 1073.22
x2 = 0.3503 | 1080.63 | 1074.29 | 1067.22 | 1061.5 | 1055.06 | 1048.25
x2 = 0.3995 | 1057.91 | 1051.71 | 1045.45 | 1039.11 | 1032.79 | 1026.29
x2 = 0.4501 | 1034.98 | 1028.92 | 1022.81 | 1016.66 | 1010.45 | 1004.19
x2 = 0.4993 | 1013.03 | 1007.13 | 1001.19 | 995.186 | 989.131 | 983.023
x2 = 0.5486 | 991.648 | 985.947 | 980.168 | 974.12 | 968.223 | 962.22
x2 = 0.6 | 969.557 | 963.995 | 958.381 | 952.707 | 946.966 | 941.176
x2 = 0.6493 | 948.744 | 943.35 | 937.897 | 932.387 | 926.811 | 921.174
x2 = 0.6999 | 928.023 | 922.806 | 917.532 | 912.188 | 906.776 | 901.308
x2 = 0.7499 | 907.77 | 902.736 | 897.63 | 892.466 | 887.227 | 881.93
x2 = 0.7998 | 887.96 | 883.21 | 878.173 | 873.288 | 868.11 | 863.093
x2 = 0.8498 | 868.538 | 863.861 | 859.123 | 854.308 | 849.413 | 844.444
x2 = 0.8997 | 849.217 | 844.779 | 840.238 | 835.615 | 830.908 | 826.085
x2 = 0.95 | 829.951 | 825.697 | 821.349 | 816.932 | 812.451 | 807.826

— the NIST ThermoML archive (doi:10.1016/j.tca.2012.05.004)
